Measurements as given in patent publication US8802597B2, “Herbicidal pyrimidines” (E I du Pont de Nemours and Company, priority 2003, dated 2014).

Key:
Experiment in all cases: Test G pre/postemergence
Format in all cases: in vivo
Details in all cases: Preemergence
[1] = system: common chickweed (Stellaria media)
Procedure, shortened: (§1)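 Seeds or nutlets were planted and treated preemergence with compound formulated in a non-phytotoxic solvent mixture containing surfactant; plants 2 to 18 cm tall (1- to 4-leaf stage) received postemergence sprays of the same formulation. After 12 to 21 days in a greenhouse, injury was rated visually against untreated controls on a 0–100 scale (100 = complete control).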

[2] = system: green foxtail (Setaria viridis)
Procedure, shortened: as §1

[3] = system: goosegrass (Eleusine indica)
Procedure, shortened: as §1

[4] = system: downy bromegrass (Bromus tectorum)
Procedure, shortened: as §1

[5] = system: Italian ryegrass (Lolium multiflorum)
Procedure, shortened: as §1

[6] = system: pitted morningglory (Ipomoea lacunosa)
Procedure, shortened: as §1

[7] = system: common ragweed (Ambrosia elatior)
Procedure, shortened: as §1

[8] = system: common mallow (Malva sylvestris)
Procedure, shortened: as §1

[9] = system: field bindweed (Convolvulus arvensis)
Procedure, shortened: as §1

[10] = system: black mustard (Brassica nigra)
Procedure, shortened: as §1

[11] = system: quackgrass (Elytrigia repens)
Procedure, shortened: as §1

[12] = system: prickly sida (Sida spinosa)
Procedure, shortened: as §1

[13] = system: tropical spiderwort (Commelina benghalensis)
Procedure, shortened: as §1

[14] = system: southern sandbur (Cenchrus echinatus)
Procedure, shortened: as §1

SMILES: COC(=O)c1nc(C2CC2)nc(N)c1Cl [Compound 9, methyl 6-amino-5-chloro-2-cyclopropyl-4-pyrimidinecarboxylate]
- Plant response rating, Chickweed ([1]; 125 g ai/ha, scale 0-100): 100
- Plant response rating, Chickweed ([1]; 250 g ai/ha, scale 0-100): 100
- Plant response rating, Chickweed ([1]; 500 g ai/ha, scale 0 to 100): 100
- Plant response rating, Foxtail, Green ([2]; 62 g ai/ha, scale 0-100): 20
- Plant response rating, Foxtail, Green ([2]; 125 g ai/ha, scale 0-100): 85
- Plant response rating, Foxtail, Green ([2]; 250 g ai/ha, scale 0-100): 100
- Plant response rating, Foxtail, Green ([2]; 500 g ai/ha, scale 0 to 100): 100
- Plant response rating, Goosegrass ([3]; 62 g ai/ha, scale 0-100): 10
- Plant response rating, Goosegrass ([3]; 125 g ai/ha, scale 0-100): 60
- Plant response rating, Goosegrass ([3]; 250 g ai/ha, scale 0-100): 95
- Plant response rating, Goosegrass ([3]; 500 g ai/ha, scale 0 to 100): 95
- Plant response rating, Bromegrass, Downy ([4]; 62 g ai/ha, scale 0-100): 10
- Plant response rating, Bromegrass, Downy ([4]; 125 g ai/ha, scale 0-100): 50
- Plant response rating, Bromegrass, Downy ([4]; 250 g ai/ha, scale 0-100): 70
- Plant response rating, Bromegrass, Downy ([4]; 500 g ai/ha, scale 0 to 100): 100
- Plant response rating, Ryegrass, Italian ([5]; 62 g ai/ha, scale 0-100): 20
- Plant response rating, Ryegrass, Italian ([5]; 125 g ai/ha, scale 0-100): 50
- Plant response rating, Ryegrass, Italian ([5]; 250 g ai/ha, scale 0-100): 75
- Plant response rating, Ryegrass, Italian ([5]; 500 g ai/ha, scale 0 to 100): 80
- Plant response rating, Morningglory ([6]; 62 g ai/ha, scale 0-100): 70
- Plant response rating, Morningglory ([6]; 125 g ai/ha, scale 0-100): 100
- Plant response rating, Morningglory ([6]; 250 g ai/ha, scale 0-100): 100
- Plant response rating, Morningglory ([6]; 500 g ai/ha, scale 0 to 100): 100
- Plant response rating, Ragweed ([7]; 62 g ai/ha, scale 0-100): 95
- Plant response rating, Ragweed ([7]; 125 g ai/ha, scale 0-100): 100
- Plant response rating, Ragweed ([7]; 250 g ai/ha, scale 0-100): 100
- Plant response rating, Ragweed ([7]; 500 g ai/ha, scale 0 to 100): 100
- Plant response rating, Mallow ([8]; 62 g ai/ha, scale 0-100): 90
- Plant response rating, Mallow ([8]; 125 g ai/ha, scale 0-100): 100
- Plant response rating, Mallow ([8]; 250 g ai/ha, scale 0-100): 100
- Plant response rating, Mallow ([8]; 500 g ai/ha, scale 0 to 100): 100
- Plant response rating, Bindweed, Field ([9]; 62 g ai/ha, scale 0-100): 95
- Plant response rating, Bindweed, Field ([9]; 125 g ai/ha, scale 0-100): 100
- Plant response rating, Bindweed, Field ([9]; 250 g ai/ha, scale 0-100): 100
- Plant response rating, Bindweed, Field ([9]; 500 g ai/ha, scale 0 to 100): 100
- Plant response rating, Black Mustard ([10]; 62 g ai/ha, scale 0-100): 70
- Plant response rating, Black Mustard ([10]; 125 g ai/ha, scale 0-100): 75
- Plant response rating, Black Mustard ([10]; 250 g ai/ha, scale 0-100): 100
- Plant response rating, Black Mustard ([10]; 500 g ai/ha, scale 0 to 100): 100
- Plant response rating, Quackgrass ([11]; 62 g ai/ha, scale 0-100): 70
- Plant response rating, Quackgrass ([11]; 250 g ai/ha, scale 0-100): 70
- Plant response rating, Quackgrass ([11]; 500 g ai/ha, scale 0 to 100): 100
- Plant response rating, Prickly Sida ([12]; 62 g ai/ha, scale 0-100): 95
- Plant response rating, Prickly Sida ([12]; 125 g ai/ha, scale 0-100): 100
- Plant response rating, Prickly Sida ([12]; 250 g ai/ha, scale 0-100): 100
- Plant response rating, Prickly Sida ([12]; 500 g ai/ha, scale 0 to 100): 100
- Plant response rating, Spiderwort ([13]; 62 g ai/ha, scale 0-100): 100
- Plant response rating, Spiderwort ([13]; 125 g ai/ha, scale 0-100): 100
- Plant response rating, Spiderwort ([13]; 250 g ai/ha, scale 0-100): 100
- Plant response rating, Spiderwort ([13]; 500 g ai/ha, scale 0 to 100): 100
- Plant response rating, Sandbur ([14]; 125 g ai/ha, scale 0-100): 80
- Plant response rating, Sandbur ([14]; 250 g ai/ha, scale 0-100): 90
- Plant response rating, Sandbur ([14]; 500 g ai/ha, scale 0 to 100): 95

SMILES: CCOC(=O)c1nc(C2CC2)nc(N)c1Cl [Compound 4, ethyl 6-amino-5-chloro-2-cyclopropyl-4-pyrimidinecarboxylate]
- Plant response rating, Chickweed ([1]; 62 g ai/ha, scale 0-100): 100
- Plant response rating, Chickweed ([1]; 125 g ai/ha, scale 0-100): 100
- Plant response rating, Chickweed ([1]; 250 g ai/ha, scale 0-100): 100
- Plant response rating, Chickweed ([1]; 500 g ai/ha, scale 0 to 100): 100
- Plant response rating, Foxtail, Green ([2]; 62 g ai/ha, scale 0-100): 20
- Plant response rating, Foxtail, Green ([2]; 125 g ai/ha, scale 0-100): 70
- Plant response rating, Foxtail, Green ([2]; 250 g ai/ha, scale 0-100): 100
- Plant response rating, Foxtail, Green ([2]; 500 g ai/ha, scale 0 to 100): 100
- Plant response rating, Goosegrass ([3]; 62 g ai/ha, scale 0-100): 10
- Plant response rating, Goosegrass ([3]; 125 g ai/ha, scale 0-100): 60
- Plant response rating, Goosegrass ([3]; 250 g ai/ha, scale 0-100): 70
- Plant response rating, Goosegrass ([3]; 500 g ai/ha, scale 0 to 100): 90
- Plant response rating, Bromegrass, Downy ([4]; 62 g ai/ha, scale 0-100): 30
- Plant response rating, Bromegrass, Downy ([4]; 125 g ai/ha, scale 0-100): 70
- Plant response rating, Bromegrass, Downy ([4]; 250 g ai/ha, scale 0-100): 100
- Plant response rating, Bromegrass, Downy ([4]; 500 g ai/ha, scale 0 to 100): 100
- Plant response rating, Ryegrass, Italian ([5]; 62 g ai/ha, scale 0-100): 30
- Plant response rating, Ryegrass, Italian ([5]; 125 g ai/ha, scale 0-100): 60
- Plant response rating, Ryegrass, Italian ([5]; 250 g ai/ha, scale 0-100): 100
- Plant response rating, Ryegrass, Italian ([5]; 500 g ai/ha, scale 0 to 100): 100
- Plant response rating, Morningglory ([6]; 62 g ai/ha, scale 0-100): 100
- Plant response rating, Morningglory ([6]; 125 g ai/ha, scale 0-100): 100
- Plant response rating, Morningglory ([6]; 250 g ai/ha, scale 0-100): 100
- Plant response rating, Morningglory ([6]; 500 g ai/ha, scale 0 to 100): 100
- Plant response rating, Ragweed ([7]; 62 g ai/ha, scale 0-100): 80
- Plant response rating, Ragweed ([7]; 125 g ai/ha, scale 0-100): 100
- Plant response rating, Ragweed ([7]; 250 g ai/ha, scale 0-100): 100
- Plant response rating, Ragweed ([7]; 500 g ai/ha, scale 0 to 100): 100
- Plant response rating, Mallow ([8]; 62 g ai/ha, scale 0-100): 100
- Plant response rating, Mallow ([8]; 125 g ai/ha, scale 0-100): 100
- Plant response rating, Mallow ([8]; 250 g ai/ha, scale 0-100): 100
- Plant response rating, Mallow ([8]; 500 g ai/ha, scale 0 to 100): 100
- Plant response rating, Bindweed, Field ([9]; 62 g ai/ha, scale 0-100): 100
- Plant response rating, Bindweed, Field ([9]; 125 g ai/ha, scale 0-100): 100
- Plant response rating, Bindweed, Field ([9]; 250 g ai/ha, scale 0-100): 100
- Plant response rating, Bindweed, Field ([9]; 500 g ai/ha, scale 0 to 100): 100
- Plant response rating, Black Mustard ([10]; 62 g ai/ha, scale 0-100): 95
- Plant response rating, Black Mustard ([10]; 125 g ai/ha, scale 0-100): 95
- Plant response rating, Black Mustard ([10]; 250 g ai/ha, scale 0-100): 100
- Plant response rating, Black Mustard ([10]; 500 g ai/ha, scale 0 to 100): 100
- Plant response rating, Quackgrass ([11]; 62 g ai/ha, scale 0-100): 60
- Plant response rating, Quackgrass ([11]; 125 g ai/ha, scale 0-100): 90
- Plant response rating, Quackgrass ([11]; 250 g ai/ha, scale 0-100): 100
- Plant response rating, Quackgrass ([11]; 500 g ai/ha, scale 0 to 100): 100
- Plant response rating, Prickly Sida ([12]; 62 g ai/ha, scale 0-100): 85
- Plant response rating, Prickly Sida ([12]; 125 g ai/ha, scale 0-100): 100
- Plant response rating, Prickly Sida ([12]; 250 g ai/ha, scale 0-100): 100
- Plant response rating, Prickly Sida ([12]; 500 g ai/ha, scale 0 to 100): 100
- Plant response rating, Spiderwort ([13]; 62 g ai/ha, scale 0-100): 100
- Plant response rating, Spiderwort ([13]; 125 g ai/ha, scale 0-100): 100
- Plant response rating, Spiderwort ([13]; 250 g ai/ha, scale 0-100): 100
- Plant response rating, Spiderwort ([13]; 500 g ai/ha, scale 0 to 100): 100
- Plant response rating, Sandbur ([14]; 62 g ai/ha, scale 0-100): 30
- Plant response rating, Sandbur ([14]; 125 g ai/ha, scale 0-100): 80
- Plant response rating, Sandbur ([14]; 250 g ai/ha, scale 0-100): 90
- Plant response rating, Sandbur ([14]; 500 g ai/ha, scale 0 to 100): 100
